# Test results from ChEMBL document CHEMBL3580592, “Combretastatin A-4 inspired novel 2-aryl-3-arylamino-imidazo-pyridines/pyrazines as tubulin polymerization inhibitors, antimitotic and anticancer agents” (Medchemcomm, 2014).
# Active and inactive are the calls of the source. The calls are words filed in the database; no cut-off is given here.
# Key:
# [1] = biological target: Tubulin; test: Inhibition of tubulin polymerization in HEK293T cell lysate after 15 mins by spectrophotometry; type: cell-free, Homo sapiens; settings: hek-293t
# [2] = biological target: Tubulin (Homo sapiens) (UniProt P68371+Q9H4B7+P0DPH7+P68366+Q13509+Q71U36+P04350+Q3ZCM7+P07437+P68363+Q9BQE3+Q6PEY2+Q13885+Q9BVA1+Q9BUF5); test: Inhibition of tubulin assembly in HEK293T cells assessed as formation of abnormal mitotic spindles at LC50 after 24 hrs by immunofluorescence based confocal microscopy; type: cell-based; settings: HEK-293T
# [3] = Cytotoxicity against African green monkey Vero cells assessed as cell death by MTT assay; type: cell-based; settings: chlorocebus sabaeus, read-out: LC50 (the source's name)
# [4] = test system: HEK-293T; test: Cytotoxicity against human HEK293T cells assessed as cell death by MTT assay; type: functional; settings: read-out: LC50 (the source's name)
# [5] = test system: SiHa; test: Cytotoxicity against human SiHa cells assessed as cell death after 24 hrs by MTT assay; type: functional; settings: read-out: LC50 (the source's name)
# [6] = test system: SiHa; test: Cytotoxicity against human SiHa cells assessed as cell death after 48 hrs by MTT assay; type: functional; settings: read-out: LC50 (the source's name)
# [7] = test system: MCF7; test: Cytotoxicity against human MCF7 cells assessed as cell death after 24 hrs by MTT assay; type: functional; settings: MCF7, 24 h, read-out: LC50 (the source's name)
# [8] = test system: MCF7; test: Cytotoxicity against human MCF7 cells assessed as cell death after 48 hrs by MTT assay; type: functional; settings: MCF7, 48 h, read-out: LC50 (the source's name)
# [9] = test system: HEK-293T; test: Cytotoxicity against human HEK293T cells assessed as cell death after 24 hrs by MTT assay; type: functional; settings: read-out: LC50 (the source's name)
# [10] = test system: HEK-293T; test: Cytotoxicity against human HEK293T cells assessed as cell death after 48 hrs by MTT assay; type: functional; settings: read-out: LC50 (the source's name)
# [11] = test system: HeLa; test: Cytotoxicity against human HeLa cells assessed as cell death after 24 hrs by MTT assay; type: functional; settings: read-out: LC50 (the source's name)
# [12] = test system: HeLa; test: Cytotoxicity against human HeLa cells assessed as cell death after 48 hrs by MTT assay; type: functional; settings: read-out: LC50 (the source's name)
# [13] = test system: HEK-293T; test: Cytotoxicity against human HEK293T cells assessed as inhibition of colony formation at LC50 after 24 hrs by crystal violet staining based clonogenic cell survival assay; type: functional
# [14] = test system: HEK293; test: Inhibition of anchorage-dependent HEK293T cell migration at LC50 after 6 to 24 hrs by wound healing assay; type: functional, cell-based; settings: Homo sapiens
# [15] = test system: HEK-293T; test: Induction of cell cycle arrest in HEK293T cells assessed as cells accumulation at G2/M phase at LC50 after 24 hrs by PI staining-based FACS scan flow cytometry (reference value: 22.2 +/- 1.5%); type: functional, Homo sapiens
# [16] = test system: HEK-293T; test: Induction of apoptosis in HEK293T cells assessed as chromatin condensation and nuclear fragmentation at LC50 after 24 hrs by DAPI staining-based fluorescent microscopy; type: functional, cell-based; settings: Homo sapiens
# [17] = test system: HEK-293T; test: Induction of apoptosis in HEK293T cells assessed as apoptotic nuclei at LC50 after 24 hrs by DAPI staining-based fluorescent microscopy; type: functional, cell-based; settings: Homo sapiens
# [18] = test system: HEK-293T; test: Induction of apoptosis in HEK293T cells assessed as increase in p53 expression at LC50 after 24 hrs by Western blot analysis; type: functional, cell-based; settings: Homo sapiens
# [19] = test system: HEK-293T; test: Induction of apoptosis in HEK293T cells assessed as reduction in PARP level at LC50 after 24 hrs by Western blot analysis; type: functional, cell-based; settings: Homo sapiens
# [20] = test system: HEK-293T; test: Induction of apoptosis in HEK293T cells assessed as activation of caspase 3 at LC50 after 24 hrs by immunocytochemical analysis; type: functional, cell-based; settings: Homo sapiens
# [21] = test system: HEK-293T; test: Induction of DNA damage in HEK293T cells assessed as increase in comet length at LC50 after 24 hrs by Comet assay relative to untreated control; type: functional, cell-based; settings: Homo sapiens
# [22] = test system: HEK-293T; test: Induction of chromosomal damage in HEK293T cells assessed as micronuclei formation at LC50 after 24 hrs by cytokinesis-block micronucleus assay relative to untreated control; type: functional, cell-based; settings: Homo sapiens
smiles,measurement,setting,value
COc1ccc(-c2nc3ccccn3c2Nc2cc(OC)c(OC)c(OC)c2)cc1O,IC50,[1],12 µM
same,inhibition,[2],Active
same,CC50,[3],50 µM
same,CC50,[4],10 µM
same,CC50,[5],5 µM
same,CC50,[6],2000 nM
same,CC50,[7],20 µM
same,CC50,[8],12 µM
same,CC50,[9],10 µM
same,CC50,[10],5000 nM
same,CC50,[11],15 µM
same,CC50,[12],10 µM
same,inhibition,[13],Active
same,inhibition,[14],Active
same,Activity,[15],33.6%
same,Activity,[16],Active
same,Activity,[17],Active
same,Activity,[18],Active
same,Activity,[19],Active
same,Activity,[20],Active
same,Activity,[21],Active
same,Activity,[22],Active
COc1cc(Nc2c(-c3ccc(Cl)cc3)nc3cnccn23)cc(OC)c1OC,IC50,[1],32 µM
same,CC50,[3],32 µM
same,CC50,[4],25 µM
COc1ccc(-c2nc3sc4ccccc4n3c2Nc2cc(OC)c(OC)c(OC)c2)cc1O,IC50,[1],20 µM
same,CC50,[3],26 µM
same,CC50,[4],22 µM
COc1ccc(Nc2c(-c3ccc(OC)c(O)c3)nc3ncccn23)cc1,IC50,[1],54 µM
same,CC50,[3],56 µM
same,CC50,[4],54 µM
COc1ccc(Nc2c(-c3ccc(F)cc3)nc3cnccn23)cc1,IC50,[1],44 µM
same,CC50,[3],72 µM
same,CC50,[4],56 µM
COc1ccc(-c2nc3cccc(C)n3c2Nc2cc(OC)c(OC)c(OC)c2)cc1O,IC50,[1],38 µM
same,CC50,[3],74 µM
same,CC50,[4],63 µM
COc1ccc(Nc2c(-c3cccc(O)c3)nc3ccccn23)cc1,IC50,[1],42 µM
same,CC50,[3],74 µM
same,CC50,[4],47 µM
COc1ccc(/C=C\c2cc(OC)c(OC)c(OC)c2)cc1O [COMBRETASTATIN A4],CC50,[3],11 µM
same,CC50,[4],8 µM
same,CC50,[5],0.6 µM
same,CC50,[6],200 nM
same,CC50,[7],7 µM
same,CC50,[8],2 µM
same,CC50,[9],8 µM
same,CC50,[10],200 nM
same,CC50,[11],6 µM
same,CC50,[12],0.8 µM
same,Activity,[16],Active
same,Activity,[17],Active
same,Activity,[18],Active
same,Activity,[19],Active
same,Activity,[20],Active
same,Activity,[21],Active
same,Activity,[22],Active
COc1cc(Nc2c(C3C=Nc4ccccc43)nc3cnccn23)cc(OC)c1OC (stereo not drawn),IC50,[1],11 µM
same,inhibition,[2],Active
same,CC50,[3],70 µM
same,CC50,[4],12 µM
same,CC50,[5],7 µM
same,CC50,[6],3000 nM
same,CC50,[7],18 µM
same,CC50,[8],6 µM
same,CC50,[9],12 µM
same,CC50,[10],3000 nM
same,CC50,[11],17 µM
same,CC50,[12],9 µM
same,inhibition,[13],Active
same,inhibition,[14],Active
same,Activity,[15],87.4%
same,Activity,[16],Active
same,Activity,[17],Active
same,Activity,[18],Active
same,Activity,[19],Active
same,Activity,[20],Active
same,Activity,[21],Active
same,Activity,[22],Active
COc1ccc(Nc2c(-c3ccc(OC)c(O)c3)nc3cnccn23)cc1,IC50,[1],38 µM
same,CC50,[3],62 µM
same,CC50,[4],38 µM
COc1ccc(-c2nc3cc(C)ccn3c2Nc2cc(OC)c(OC)c(OC)c2)cc1O,IC50,[1],10 µM
same,inhibition,[2],Active
same,CC50,[3],48 µM
same,CC50,[4],8 µM
same,CC50,[5],4 µM
same,CC50,[6],1500 nM
same,CC50,[7],15 µM
same,CC50,[8],10 µM
same,CC50,[9],8 µM
same,CC50,[10],3000 nM
same,CC50,[11],15 µM
same,CC50,[12],7 µM
same,inhibition,[13],Active
same,inhibition,[14],Active
same,Activity,[15],36.6%
same,Activity,[16],Active
same,Activity,[17],Active
same,Activity,[18],Active
same,Activity,[19],Active
same,Activity,[20],Active
same,Activity,[21],Active
same,Activity,[22],Active
COc1ccc(Nc2c(-c3ccc(Cl)cc3)nc3cnccn23)cc1,IC50,[1],46 µM
same,CC50,[3],45 µM
same,CC50,[4],34 µM
COc1cc(Nc2c(-c3cccc(O)c3)nc3cnccn23)cc(OC)c1OC,IC50,[1],39 µM
same,CC50,[3],63 µM
same,CC50,[4],42 µM
COc1ccc(Nc2c(-c3ccc(OC)cc3)nc3ccccn23)cc1,IC50,[1],34 µM
same,CC50,[3],54 µM
same,CC50,[4],34 µM
COc1cc(-c2nc3cnccn3c2Nc2cc(OC)c(OC)c(OC)c2)cc(OC)c1O,IC50,[1],34 µM
same,CC50,[3],62 µM
same,CC50,[4],34 µM
COc1cc(Nc2c(-c3ccc(F)cc3)nc3cnccn23)cc(OC)c1OC,IC50,[1],36 µM
same,CC50,[3],48 µM
same,CC50,[4],36 µM
COc1ccc(-c2nc3sccn3c2Nc2cc(OC)c(OC)c(OC)c2)cc1O,IC50,[1],36 µM
same,CC50,[3],62 µM
same,CC50,[4],36 µM
COc1ccc(Nc2c(-c3cccc(B(O)O)c3)nc3ccccn23)cc1,IC50,[1],48 µM
same,CC50,[3],58 µM
same,CC50,[4],48 µM
COc1ccc(Nc2c(-c3cc(OC)c(OC)c(OC)c3)nc3ccccn23)cc1,IC50,[1],14 µM
same,inhibition,[2],Active
same,CC50,[3],65 µM
same,CC50,[4],10 µM
same,CC50,[5],5 µM
same,CC50,[6],2000 nM
same,CC50,[7],8 µM
same,CC50,[8],5 µM
same,CC50,[9],10 µM
same,CC50,[10],5000 nM
same,CC50,[11],9 µM
same,CC50,[12],5 µM
same,inhibition,[13],Active
same,inhibition,[14],Active
same,Activity,[15],40.7%
same,Activity,[16],Active
same,Activity,[17],Active
same,Activity,[18],Active
same,Activity,[19],Active
same,Activity,[20],Active
same,Activity,[21],Active
same,Activity,[22],Active
COc1ccc(-c2nc3cnccn3c2Nc2cc(OC)c(OC)c(OC)c2)cc1O,IC50,[1],38 µM
same,CC50,[3],50 µM
same,CC50,[4],38 µM
COc1ccc(-c2nc3cnccn3c2Nc2cc(OC)c(OC)c(OC)c2)cc1,IC50,[1],40 µM
same,CC50,[3],75 µM
same,CC50,[4],54 µM
